Measured values as given in the supplement of paper PMC8671470.

Experiments:
Test in all cases: cell viability (% survival relative to DMSO control, bortezomib = 0%); higher = less cytotoxic
Conditions in all cases: 72 h
HEL = test system: HEL
How it was run: (§1)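 Percent survival figures are means of duplicate wells. They were obtained by CellTiter-Glo luminescence after 10 AML and 5 CML cell lines spent 72 h at 37 °C with 5% CO2 in 384-well plates with compounds at 1, 10, 100, 1000 or 10000 nM. Vehicle was set to 100% and a 10 µM positive control to 0%.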

KG-1 = test system: KG-1
How it was run: as §1

ML-2 = test system: ML-2
How it was run: as §1

MV4-11 = test system: MV4-11
How it was run: as §1

CC(/C=C1\SC(=S)N(CC(=O)O)C1=O)=C\c1ccccc1 [Epalrestat]
cell viability (HEL; 1 nM): 120% | cell viability (HEL; 10 nM): 94.8% | cell viability (HEL; 100 nM): 99.5% | cell viability (HEL; 1000 nM): 95.5% | cell viability (HEL; 10000 nM): 112% | cell viability (KG-1; 1 nM): 108% | cell viability (KG-1; 10 nM): 101% | cell viability (KG-1; 100 nM): 116% | cell viability (KG-1; 1000 nM): 104% | cell viability (KG-1; 10000 nM): 111% | cell viability (ML-2; 1 nM): 99.7% | cell viability (ML-2; 10 nM): 101% | cell viability (ML-2; 100 nM): 99.8% | cell viability (ML-2; 1000 nM): 104% | cell viability (ML-2; 10000 nM): 112% | cell viability (MV4-11; 1 nM): 95.3% | cell viability (MV4-11; 10 nM): 85.8% | cell viability (MV4-11; 100 nM): 103% | cell viability (MV4-11; 1000 nM): 102% | cell viability (MV4-11; 10000 nM): 110%

CCOC(=O)[C@@]1(CCCCCCOc2ccc(Cl)cc2)CO1 [Etomoxir]
cell viability (HEL; 1 nM): 105% | cell viability (HEL; 10 nM): 99.6% | cell viability (HEL; 100 nM): 105% | cell viability (HEL; 1000 nM): 93.3% | cell viability (HEL; 10000 nM): 84.5% | cell viability (KG-1; 1 nM): 94.3% | cell viability (KG-1; 10 nM): 99.8% | cell viability (KG-1; 100 nM): 112% | cell viability (KG-1; 1000 nM): 94.5% | cell viability (KG-1; 10000 nM): 91.1% | cell viability (ML-2; 1 nM): 109% | cell viability (ML-2; 10 nM): 109% | cell viability (ML-2; 100 nM): 114% | cell viability (ML-2; 1000 nM): 87.6% | cell viability (ML-2; 10000 nM): 99.9% | cell viability (MV4-11; 1 nM): 105% | cell viability (MV4-11; 10 nM): 97.2% | cell viability (MV4-11; 100 nM): 99% | cell viability (MV4-11; 1000 nM): 85.3% | cell viability (MV4-11; 10000 nM): 79.3%

Cc1c(-c2ccccc2)oc2c(C(=O)OCCN3CCCCC3)cccc2c1=O.Cl [Flavoxate]
cell viability (HEL; 1 nM): 91% | cell viability (HEL; 10 nM): 105% | cell viability (HEL; 100 nM): 107% | cell viability (HEL; 1000 nM): 95.3% | cell viability (HEL; 10000 nM): 100% | cell viability (KG-1; 1 nM): 94.7% | cell viability (KG-1; 10 nM): 108% | cell viability (KG-1; 100 nM): 94.8% | cell viability (KG-1; 1000 nM): 97% | cell viability (KG-1; 10000 nM): 106% | cell viability (ML-2; 1 nM): 99.1% | cell viability (ML-2; 10 nM): 99.5% | cell viability (ML-2; 100 nM): 105% | cell viability (ML-2; 1000 nM): 101% | cell viability (ML-2; 10000 nM): 103% | cell viability (MV4-11; 1 nM): 87.5% | cell viability (MV4-11; 10 nM): 83.6% | cell viability (MV4-11; 100 nM): 97.9% | cell viability (MV4-11; 1000 nM): 94.8% | cell viability (MV4-11; 10000 nM): 98.6%

O=C(O)CCc1ccc(NCc2cccc(Oc3ccccc3)c2)cc1 [GW9508]
cell viability (HEL; 1 nM): 112% | cell viability (HEL; 10 nM): 105% | cell viability (HEL; 100 nM): 101% | cell viability (HEL; 1000 nM): 109% | cell viability (HEL; 10000 nM): 104% | cell viability (KG-1; 1 nM): 90.6% | cell viability (KG-1; 10 nM): 101% | cell viability (KG-1; 100 nM): 96.8% | cell viability (KG-1; 1000 nM): 108% | cell viability (KG-1; 10000 nM): 107% | cell viability (ML-2; 1 nM): 84.3% | cell viability (ML-2; 10 nM): 103% | cell viability (ML-2; 100 nM): 95.8% | cell viability (ML-2; 1000 nM): 112% | cell viability (ML-2; 10000 nM): 103% | cell viability (MV4-11; 1 nM): 98.2% | cell viability (MV4-11; 10 nM): 98.7% | cell viability (MV4-11; 100 nM): 103% | cell viability (MV4-11; 1000 nM): 103% | cell viability (MV4-11; 10000 nM): 106%

c1ccc2c(c1)OCC(=C1NCCN1)O2 [Idazoxan]
cell viability (HEL; 1 nM): 96.4% | cell viability (HEL; 10 nM): 112% | cell viability (HEL; 100 nM): 85.6% | cell viability (HEL; 1000 nM): 95.1% | cell viability (HEL; 10000 nM): 90.4% | cell viability (KG-1; 1 nM): 104% | cell viability (KG-1; 10 nM): 112% | cell viability (KG-1; 100 nM): 93.6% | cell viability (KG-1; 1000 nM): 96.4% | cell viability (KG-1; 10000 nM): 85.9% | cell viability (ML-2; 1 nM): 97.4% | cell viability (ML-2; 10 nM): 97.9% | cell viability (ML-2; 100 nM): 86.9% | cell viability (ML-2; 1000 nM): 94.2% | cell viability (ML-2; 10000 nM): 93.7% | cell viability (MV4-11; 1 nM): 82.3% | cell viability (MV4-11; 10 nM): 106% | cell viability (MV4-11; 100 nM): 80.6% | cell viability (MV4-11; 1000 nM): 82.9% | cell viability (MV4-11; 10000 nM): 89.1%

C[C@]12O[C@H](C[C@]1(O)CO)n1c3ccccc3c3c4c(c5c6ccccc6n2c5c31)CNC4=O [Lestaurtinib]
cell viability (HEL; 1 nM): 95.5% | cell viability (HEL; 10 nM): 90.4% | cell viability (HEL; 100 nM): 33.2% | cell viability (HEL; 1000 nM): 19.1% | cell viability (HEL; 10000 nM): 4.54% | cell viability (KG-1; 1 nM): 98.3% | cell viability (KG-1; 10 nM): 69.3% | cell viability (KG-1; 100 nM): 28% | cell viability (KG-1; 1000 nM): 10.3% | cell viability (KG-1; 10000 nM): 6.14% | cell viability (ML-2; 1 nM): 107% | cell viability (ML-2; 10 nM): 84.4% | cell viability (ML-2; 100 nM): 61.4% | cell viability (ML-2; 1000 nM): 9.84% | cell viability (ML-2; 10000 nM): 0.0251% | cell viability (MV4-11; 1 nM): 73.6% | cell viability (MV4-11; 10 nM): 7.97% | cell viability (MV4-11; 100 nM): -0.544% | cell viability (MV4-11; 1000 nM): 0.552% | cell viability (MV4-11; 10000 nM): 0.212%

O=C(O)c1nn(Cc2ccc(Cl)cc2Cl)c2ccccc12 [Lonidamine]
cell viability (HEL; 1 nM): 102% | cell viability (HEL; 10 nM): 111% | cell viability (HEL; 100 nM): 120% | cell viability (HEL; 1000 nM): 99.5% | cell viability (HEL; 10000 nM): 106% | cell viability (KG-1; 1 nM): 97.8% | cell viability (KG-1; 10 nM): 103% | cell viability (KG-1; 100 nM): 103% | cell viability (KG-1; 1000 nM): 84.7% | cell viability (KG-1; 10000 nM): 71.9% | cell viability (ML-2; 1 nM): 102% | cell viability (ML-2; 10 nM): 106% | cell viability (ML-2; 100 nM): 101% | cell viability (ML-2; 1000 nM): 93.7% | cell viability (ML-2; 10000 nM): 95.1% | cell viability (MV4-11; 1 nM): 78.5% | cell viability (MV4-11; 10 nM): 96.2% | cell viability (MV4-11; 100 nM): 88.9% | cell viability (MV4-11; 1000 nM): 98.1% | cell viability (MV4-11; 10000 nM): 106%

C1CCc2nnc(C34CC5CC(CC(C5)C3)C4)n2CC1 [MERCK-544]
cell viability (HEL; 1 nM): 104% | cell viability (HEL; 10 nM): 106% | cell viability (HEL; 100 nM): 95.2% | cell viability (HEL; 1000 nM): 92.4% | cell viability (HEL; 10000 nM): 132% | cell viability (KG-1; 1 nM): 101% | cell viability (KG-1; 10 nM): 106% | cell viability (KG-1; 100 nM): 98.5% | cell viability (KG-1; 1000 nM): 95.2% | cell viability (KG-1; 10000 nM): 105% | cell viability (ML-2; 1 nM): 101% | cell viability (ML-2; 10 nM): 97.5% | cell viability (ML-2; 100 nM): 93.5% | cell viability (ML-2; 1000 nM): 87.7% | cell viability (ML-2; 10000 nM): 96.6% | cell viability (MV4-11; 1 nM): 97.8% | cell viability (MV4-11; 10 nM): 100% | cell viability (MV4-11; 100 nM): 102% | cell viability (MV4-11; 1000 nM): 87.3% | cell viability (MV4-11; 10000 nM): 106%

CC(Cc1ccc(O)c(O)c1)C(C)Cc1ccc(O)c(O)c1 (stereo not given) [Masoprocol]
cell viability (HEL; 1 nM): 114% | cell viability (HEL; 10 nM): 106% | cell viability (HEL; 100 nM): 137% | cell viability (HEL; 1000 nM): 114% | cell viability (HEL; 10000 nM): 79.8% | cell viability (KG-1; 1 nM): 99% | cell viability (KG-1; 10 nM): 109% | cell viability (KG-1; 100 nM): 108% | cell viability (KG-1; 1000 nM): 94.8% | cell viability (KG-1; 10000 nM): 48.2% | cell viability (ML-2; 1 nM): 99.2% | cell viability (ML-2; 10 nM): 103% | cell viability (ML-2; 100 nM): 96.1% | cell viability (ML-2; 1000 nM): 101% | cell viability (ML-2; 10000 nM): 3.98% | cell viability (MV4-11; 1 nM): 108% | cell viability (MV4-11; 10 nM): 91.6% | cell viability (MV4-11; 100 nM): 92.5% | cell viability (MV4-11; 1000 nM): 97.2% | cell viability (MV4-11; 10000 nM): 9.84%

CC(C(=O)O)C(=O)O [Methylmalonate]
cell viability (HEL; 1 nM): 87.5% | cell viability (HEL; 10 nM): 100% | cell viability (HEL; 100 nM): 109% | cell viability (HEL; 1000 nM): 81.5% | cell viability (HEL; 10000 nM): 95.3% | cell viability (KG-1; 1 nM): 92.5% | cell viability (KG-1; 10 nM): 90.8% | cell viability (KG-1; 100 nM): 91.2% | cell viability (KG-1; 1000 nM): 88.9% | cell viability (KG-1; 10000 nM): 88.4% | cell viability (ML-2; 1 nM): 87.4% | cell viability (ML-2; 10 nM): 96.5% | cell viability (ML-2; 100 nM): 96.6% | cell viability (ML-2; 1000 nM): 92.2% | cell viability (ML-2; 10000 nM): 87.9% | cell viability (MV4-11; 1 nM): 94.7% | cell viability (MV4-11; 10 nM): 80.3% | cell viability (MV4-11; 100 nM): 107% | cell viability (MV4-11; 1000 nM): 97.1% | cell viability (MV4-11; 10000 nM): 102%

COc1c(C)c2c(c(O)c1C/C=C(\C)CCC(=O)O)C(=O)OC2 [Mycophenolic acid]
cell viability (HEL; 1 nM): 94.5% | cell viability (HEL; 10 nM): 108% | cell viability (HEL; 100 nM): 104% | cell viability (HEL; 1000 nM): 51.7% | cell viability (HEL; 10000 nM): 3.56% | cell viability (KG-1; 1 nM): 101% | cell viability (KG-1; 10 nM): 104% | cell viability (KG-1; 100 nM): 94.5% | cell viability (KG-1; 1000 nM): 70.6% | cell viability (KG-1; 10000 nM): 18.5% | cell viability (ML-2; 1 nM): 116% | cell viability (ML-2; 10 nM): 105% | cell viability (ML-2; 100 nM): 86.5% | cell viability (ML-2; 1000 nM): 22.7% | cell viability (ML-2; 10000 nM): 8.02% | cell viability (MV4-11; 1 nM): 103% | cell viability (MV4-11; 10 nM): 94.5% | cell viability (MV4-11; 100 nM): 90.7% | cell viability (MV4-11; 1000 nM): 26.5% | cell viability (MV4-11; 10000 nM): -0.47%
